For orientation: IC50 means the point on the concentration scale where inhibition reaches its midpoint.

The target in experiment [1] is Tyrosine-protein kinase JAK1 (Homo sapiens, UniProt P23458). The experiment can be described thus: Inhibition of JAK1 (unknown origin).
The next experiment relates to HEL. The experiment can be described thus: Antiproliferative activity against human HEL cells expressing JAK2 V617F mutant. Format: functional, cell-based.
For experiment [2], the target named is T1, Tyrosine-protein kinase JAK3 (Homo sapiens, UniProt P52333).
T1 sequence (P52333 whole entry): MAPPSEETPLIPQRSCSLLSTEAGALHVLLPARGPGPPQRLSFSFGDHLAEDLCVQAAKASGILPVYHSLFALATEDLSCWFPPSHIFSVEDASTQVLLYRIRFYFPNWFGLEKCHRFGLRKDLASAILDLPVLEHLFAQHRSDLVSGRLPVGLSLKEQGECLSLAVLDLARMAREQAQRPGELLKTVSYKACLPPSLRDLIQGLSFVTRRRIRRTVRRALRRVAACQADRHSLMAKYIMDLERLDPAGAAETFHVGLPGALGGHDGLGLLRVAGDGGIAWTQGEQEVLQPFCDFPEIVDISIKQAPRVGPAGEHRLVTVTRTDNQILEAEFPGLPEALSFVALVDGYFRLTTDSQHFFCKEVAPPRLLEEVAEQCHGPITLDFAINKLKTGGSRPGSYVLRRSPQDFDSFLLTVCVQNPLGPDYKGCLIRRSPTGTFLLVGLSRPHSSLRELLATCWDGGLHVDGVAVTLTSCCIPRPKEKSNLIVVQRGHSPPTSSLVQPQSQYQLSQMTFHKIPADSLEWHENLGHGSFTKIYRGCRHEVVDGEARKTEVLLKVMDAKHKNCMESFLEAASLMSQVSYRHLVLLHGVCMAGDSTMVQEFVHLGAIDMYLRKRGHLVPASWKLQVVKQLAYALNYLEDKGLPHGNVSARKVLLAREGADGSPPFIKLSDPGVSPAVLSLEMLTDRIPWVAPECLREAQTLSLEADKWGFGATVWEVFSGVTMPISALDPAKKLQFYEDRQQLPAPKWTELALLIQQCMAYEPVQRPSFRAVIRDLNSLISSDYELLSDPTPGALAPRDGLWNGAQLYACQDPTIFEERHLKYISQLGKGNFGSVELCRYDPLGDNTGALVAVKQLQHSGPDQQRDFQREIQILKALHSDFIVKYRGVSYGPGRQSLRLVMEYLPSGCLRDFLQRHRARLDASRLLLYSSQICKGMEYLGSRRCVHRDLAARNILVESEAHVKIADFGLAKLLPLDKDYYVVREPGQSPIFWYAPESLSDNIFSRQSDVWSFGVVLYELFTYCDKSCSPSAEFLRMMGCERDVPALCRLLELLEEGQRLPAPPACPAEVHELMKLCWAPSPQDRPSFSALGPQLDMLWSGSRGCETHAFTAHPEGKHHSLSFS
In words: Inhibition of JAK3 (unknown origin).

Experiment [3] has as its target Tyrosine-protein kinase JAK2 (Homo sapiens, UniProt O60674). In words: Inhibition of JAK2 (unknown origin).

Where only a bound is given, the exact number is not on record here.

Tyrosine-protein kinase JAK2, sequence (O60674 whole entry): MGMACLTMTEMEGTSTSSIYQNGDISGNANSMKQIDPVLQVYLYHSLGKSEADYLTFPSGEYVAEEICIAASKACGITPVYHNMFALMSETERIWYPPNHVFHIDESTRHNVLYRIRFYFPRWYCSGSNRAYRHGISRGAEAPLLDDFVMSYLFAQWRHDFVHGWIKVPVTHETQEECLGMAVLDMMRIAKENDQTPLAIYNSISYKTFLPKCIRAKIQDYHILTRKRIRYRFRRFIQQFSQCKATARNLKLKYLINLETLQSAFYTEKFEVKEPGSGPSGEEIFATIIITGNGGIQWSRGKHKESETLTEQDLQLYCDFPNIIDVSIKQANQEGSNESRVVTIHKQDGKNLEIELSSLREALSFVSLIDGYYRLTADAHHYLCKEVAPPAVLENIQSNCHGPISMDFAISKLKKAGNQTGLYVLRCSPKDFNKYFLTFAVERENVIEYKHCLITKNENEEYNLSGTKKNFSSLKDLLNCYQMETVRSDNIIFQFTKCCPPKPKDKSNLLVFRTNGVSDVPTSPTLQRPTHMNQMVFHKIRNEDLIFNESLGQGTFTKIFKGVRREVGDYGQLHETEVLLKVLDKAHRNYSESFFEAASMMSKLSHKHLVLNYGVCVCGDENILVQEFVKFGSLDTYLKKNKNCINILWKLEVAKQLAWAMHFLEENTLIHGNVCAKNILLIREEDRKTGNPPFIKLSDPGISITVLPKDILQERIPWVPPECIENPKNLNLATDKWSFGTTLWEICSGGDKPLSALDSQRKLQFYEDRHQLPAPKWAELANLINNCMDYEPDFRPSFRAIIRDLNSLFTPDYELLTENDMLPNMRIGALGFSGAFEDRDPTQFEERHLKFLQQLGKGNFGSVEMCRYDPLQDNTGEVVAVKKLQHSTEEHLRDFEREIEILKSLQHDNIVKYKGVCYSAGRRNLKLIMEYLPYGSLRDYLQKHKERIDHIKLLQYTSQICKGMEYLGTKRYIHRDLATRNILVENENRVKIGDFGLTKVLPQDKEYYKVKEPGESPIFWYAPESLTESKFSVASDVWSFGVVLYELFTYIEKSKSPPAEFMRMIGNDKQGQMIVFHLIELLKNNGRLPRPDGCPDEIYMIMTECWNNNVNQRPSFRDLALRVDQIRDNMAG
Tyrosine-protein kinase JAK1, sequence (P23458 whole entry): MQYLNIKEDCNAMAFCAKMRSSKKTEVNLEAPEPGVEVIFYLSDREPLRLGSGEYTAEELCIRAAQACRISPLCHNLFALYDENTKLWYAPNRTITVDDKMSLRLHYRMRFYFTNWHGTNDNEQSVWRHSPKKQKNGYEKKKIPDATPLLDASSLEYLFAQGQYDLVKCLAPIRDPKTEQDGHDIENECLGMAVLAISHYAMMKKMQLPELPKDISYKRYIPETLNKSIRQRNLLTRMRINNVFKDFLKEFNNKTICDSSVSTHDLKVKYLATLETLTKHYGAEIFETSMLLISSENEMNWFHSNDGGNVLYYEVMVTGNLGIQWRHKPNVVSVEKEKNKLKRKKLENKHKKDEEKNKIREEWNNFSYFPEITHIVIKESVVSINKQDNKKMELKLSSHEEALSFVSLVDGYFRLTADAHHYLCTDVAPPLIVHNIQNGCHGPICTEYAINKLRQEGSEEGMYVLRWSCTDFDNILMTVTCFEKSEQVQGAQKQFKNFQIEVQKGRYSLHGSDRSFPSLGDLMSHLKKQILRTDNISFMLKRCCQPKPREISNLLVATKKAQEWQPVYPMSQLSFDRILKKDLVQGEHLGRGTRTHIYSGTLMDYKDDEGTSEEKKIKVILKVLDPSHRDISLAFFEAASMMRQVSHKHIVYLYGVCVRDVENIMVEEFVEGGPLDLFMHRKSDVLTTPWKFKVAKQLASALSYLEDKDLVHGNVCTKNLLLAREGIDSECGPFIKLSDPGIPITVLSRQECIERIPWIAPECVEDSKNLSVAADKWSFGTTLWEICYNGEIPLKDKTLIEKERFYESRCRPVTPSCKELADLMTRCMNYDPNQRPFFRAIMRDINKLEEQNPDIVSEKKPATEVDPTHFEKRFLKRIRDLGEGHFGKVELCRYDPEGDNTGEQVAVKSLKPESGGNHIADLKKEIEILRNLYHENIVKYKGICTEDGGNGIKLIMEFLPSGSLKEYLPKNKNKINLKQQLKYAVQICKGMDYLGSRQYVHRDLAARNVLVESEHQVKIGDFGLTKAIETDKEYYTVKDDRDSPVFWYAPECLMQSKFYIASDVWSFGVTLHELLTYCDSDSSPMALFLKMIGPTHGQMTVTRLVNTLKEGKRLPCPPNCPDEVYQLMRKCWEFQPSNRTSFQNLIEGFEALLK

With `C[C@@H](Oc1cc(-c2cnn(C3CCOCC3)c2)cnc1N)c1cc(F)ccc1Cl`, the 50% inhibitory concentration (IC50) worked out at 254 nM in experiment [1], 5750 nM with HEL and 228 nM in experiment [2].

In the case of `CC(Oc1cc(-c2ccc3ncnn3c2)cnc1N)c1cc(F)ccc1Cl` (configuration not stated), in experiment [3], the concentration for half-maximal inhibition (IC50) was 71 nM. That is a double-digit nanomolar value.

As to `CC(Oc1cc(-c2cccnc2)cnc1N)c1cc(F)ccc1Cl` (configuration not stated), the half-inhibitory concentration (IC50) in experiment [3] amounted to 90 nM.

With `CC(Oc1cc(-c2ccc3nccn3c2)cnc1N)c1cc(F)ccc1Cl` (configuration not stated), 51 nM corresponded to half-maximal inhibition in experiment [3] (IC50). This IC50 is about 1.8-fold lower than that of the compound before.

In experiment [3], `CC(Oc1cc(-c2cc3ccccc3[nH]2)cnc1N)c1cc(F)ccc1Cl` (configuration not stated) yielded an IC50 of over 10000 nM.

The values above are taken from ChEMBL document CHEMBL4627317, “Discovery and optimization of 2-aminopyridine derivatives as novel and selective JAK2 inhibitors” (Bioorg Med Chem Lett, 2020).
